Measured values published in US9914730B2, “Azaquinazoline inhibitors of Atypical protein Kinase C” (Ignyta, Inc., priority 2012, dated 2018).

Molecular target: T1, full-length human PKCι (Homo sapiens, UniProt P41743)
T1 construct: Recombinant, full-length human PKCι expressed in Sf21 insect cells is also commercially available; purchased; host or cells: Sf21 insect cells
T1 sequence (P41743 1-596): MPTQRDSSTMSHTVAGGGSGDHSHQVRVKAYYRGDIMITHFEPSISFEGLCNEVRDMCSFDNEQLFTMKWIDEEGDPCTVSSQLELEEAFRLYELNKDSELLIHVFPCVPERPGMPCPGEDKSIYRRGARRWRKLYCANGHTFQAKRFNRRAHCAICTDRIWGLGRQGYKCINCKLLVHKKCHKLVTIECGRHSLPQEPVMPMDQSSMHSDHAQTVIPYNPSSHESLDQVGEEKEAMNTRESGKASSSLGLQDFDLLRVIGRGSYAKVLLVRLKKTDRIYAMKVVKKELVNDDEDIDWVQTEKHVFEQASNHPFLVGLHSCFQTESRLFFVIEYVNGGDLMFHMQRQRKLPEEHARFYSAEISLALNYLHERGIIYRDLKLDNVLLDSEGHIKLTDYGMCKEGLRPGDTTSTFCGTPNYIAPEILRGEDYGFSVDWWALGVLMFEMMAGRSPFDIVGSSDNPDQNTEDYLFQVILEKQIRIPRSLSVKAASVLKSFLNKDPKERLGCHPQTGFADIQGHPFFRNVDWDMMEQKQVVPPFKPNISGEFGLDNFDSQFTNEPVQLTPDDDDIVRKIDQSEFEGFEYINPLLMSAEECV
Assay: PKCι IC50 IMAP assay, full-length PKCι at 150 μM ATP
Format: biochemical
Conditions: read-out: IC50 in IMAP assay against full length PKCi at 150 μM ATP
Procedure, shortened: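 Phosphorylation of a 5FAM-tagged PKCε pseudopeptide-derived substrate (100 nM) by full-length recombinant human PKCι was monitored by IMAP fluorescence polarisation. ATP was held at 150 μM, five times its apparent KM, with 60 min room-temperature incubation.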

Structure (SMILES)	IC50 [nM]
NC(=O)c1ccc(Nc2cc(-c3nc(N[C@@H]4CCNC4)c4ccncc4n3)ccn2)cc1 [Example 304, 4-{4-[4-((R)-Pyrrolidin-3-ylamino)-pyrido[3,4-d]pyrimidin-2-yl]-pyridin-2-ylamino}-benzamide]	100 to 1000
c1ccc(CC2CN(c3nc(N[C@@H]4CCNC4)c4ccncc4n3)CCO2)cc1 (stereo partly drawn) [Example 1001, [2-(2-Benzyl-morpholin-4-yl)-pyrido[3,4-d]pyrimidin-4-yl]-(R)-pyrrolidin-3-yl-amine]	1000 to 10000
OC[C@H](O)CN1CCN(c2nc(-c3ccnc(Nc4ccccc4)c3)nc3cncc(C4CC4)c23)CC1 [Example 608, (R)-3-{4-[5-Cyclopropyl-2-(2-phenylamino-pyridin-4-yl)-pyrido[3,4-d]pyrimidin-4-yl]-piperazin-1-yl}-propane-1,2-diol]	100 to 1000
CCCc1nccc2c(N3CCNCC3)nc(-c3ccncc3)nc12 [Example 159, 4-piperazin-1-yl-8-propyl-2-pyridin-4-yl-pyrido[3,4-d]pyrimidine]	10000 to 40000
Clc1cc2c(N3CCNCC3)nc(-c3ccncc3)nc2cn1 [Example 13, 1-[6-chloro-2-(pyridin-4-yl)-pyrido[3,4-d]-pyrimidin-4-yl]piperazine]	1000 to 10000
CN(c1nc(-c2ccnc3[nH]c(C(F)(F)F)cc23)nc2cncc(C3CC3)c12)C1CCNCC1 [Example 2070, [5-Cyclopropyl-2-(2-trifluoromethyl-1H-pyrrolo[2,3-b]pyridin-4-yl)-pyrido[3,4-d]pyrimidin-4-yl]-methyl-piperidin-4-yl-amine]	< 100
COc1cncc2nc(-c3ccnc(Nc4ccccc4)c3)nc(N3CCN(CCO)CC3)c12 [Example 432, 2-{4-[5-Methoxy-2-(2-phenylamino-pyridin-4-yl)-pyrido[3,4-d]pyrimidin-4-yl]-piperazin-1-yl}-ethanol]	100 to 1000
COc1cncc2nc(-c3ccncc3)nc(N3CCNC(CC#N)C3)c12 (stereo not shown) [Example 58, 2-{4-[5-methoxy-2-(pyridin-4-yl)-pyrido[3,4-d]-pyrimidin-4-yl]-piperazin-2-yl]-acetonitrile]	100 to 1000
CC(=O)N1CCC(N(C)c2nc(-c3ccnc(Nc4c(F)cccc4F)c3)nc3cncc(C4CC4)c23)CC1 [Example 2096, 1-[4-({5-Cyclopropyl-2-[2-(2,6-difluoro-phenylamino)-pyridin-4-yl]-pyrido[3,4-d]pyrimidin-4-yl}-methyl-amino)-piperidin-1-yl]-ethanone]	100 to 1000
COc1cncc2nc(-c3ccnc(Nc4cc(C#N)ccn4)c3)nc(N3CCC(O)CC3)c12 [Example 402, 2-{4-[4-(4-Hydroxy-piperidin-1-yl)-5-methoxy-pyrido[3,4-d]pyrimidin-2-yl]-pyridin-2-ylamino}-isonicotinonitrile]	100 to 1000
N#Cc1ccnc(Nc2cc(-c3nc(N4CCN5C(=O)OCC5C4)c4c(C5CC5)cncc4n3)ccn2)c1 (stereo not shown) [Example 533, 2-{4-[5-Cyclopropyl-4-(3-oxo-tetrahydro-oxazolo[3,4-a]pyrazin-7-yl)-pyrido[3,4-d]pyrimidin-2-yl]-pyridin-2-ylamino}-isonicotinonitrile]	100 to 1000
c1cc(-c2nc(N3CCC4NCC[C@H]4C3)c3ccncc3n2)ccn1 (stereo partly drawn) [Example 67, 4-{4-[(3aS)-octahydro-1H-pyrrolo[3,2-c]-pyridin-5-yl]-pyrido[3,4-d]-pyrimidin-2-yl}-pyridine]	10000 to 40000
COc1cncc2nc(-c3ccnc(Nc4cccc(N5CCNCC5)c4)c3)ncc12 [Example 503, [4-(5-Methoxy-pyrido[3,4-d]pyrimidin-2-yl)-pyridin-2-yl]-(3-piperazin-1-yl-phenyl)-amine]	1000 to 10000
CN(CC1CCNCC1)c1nc(-c2ccnc(Nc3ncc(F)cc3F)c2)nc2cncc(C3CC3)c12 [Example 2167, {5-Cyclopropyl-2-[2-(3,5-difluoro-pyridin-2-ylamino)-pyridin-4-yl]-pyrido[3,4-d]pyrimidin-4-yl}-methyl-piperidin-4-ylmethyl-amine]	< 100

Other lines, results leading:

IC50 [nM]	Structure (SMILES)
< 100	Fc1cc(F)c(-n2cc(Nc3cc(-c4nc(N5CCNCC5)c5c(C6CC6)cncc5n4)ccn3)cn2)c(F)c1 [Example 820, [4-(5-Cyclopropyl-4-piperazin-1-yl-pyrido[3,4-d]pyrimidin-2-yl)-pyridin-2-yl]-[1-(2,4,6-trifluoro-phenyl)-1H-pyrazol-4-yl]-amine]
< 100	C[C@@H](Nc1cc(-c2nc(N3CCNCC3)c3c(C4CCC4)cncc3n2)ccn1)c1ccccc1F [Example 2161, [4-(5-Cyclobutyl-4-piperazin-1-yl-pyrido[3,4-d]pyrimidin-2-yl)-pyridin-2-yl]-[(R)-1-(2-fluoro-phenyl)-ethyl]-amine]
< 100	CN1CCN(c2cccc(Nc3cc(-c4nc(N5CC[C@H](CO)C5)c5c(C6CC6)cncc5n4)ccn3)c2)CC1 [Example 722, [(S)-1-(5-Cyclopropyl-2-{2-[3-(4-methyl-piperazin-1-yl)-phenylamino]-pyridin-4-yl}-pyrido[3,4-d]pyrimidin-4-yl)-pyrrolidin-3-yl]-methanol]
< 100	Fc1ccc(Nc2cc(-c3nc(N4CCNCC4)c4c(C5CC5)cncc4n3)ccn2)cc1 [Example 594, [4-(5-Cyclopropyl-4-piperazin-1-yl-pyrido[3,4-d]pyrimidin-2-yl)-pyridin-2-yl]-(4-fluoro-phenyl)-amine]
< 100	c1cc2c(N[C@@H]3CCNC3)nc(-c3ccnc(Nc4ccc(N5CCOCC5)nc4)c3)nc2cn1 [Example 319, {2-[2-(6-Morpholin-4-yl-pyridin-3-ylamino)-pyridin-4-yl]-pyrido[3,4-d]pyrimidin-4-yl}-(R)-pyrrolidin-3-yl-amine]
< 100	Fc1ccc(Nc2cc(-c3nc(N4CCNCC4)c4c(C5CC5)cncc4n3)ccn2)c(F)n1 [Example 671, [4-(5-Cyclopropyl-4-piperazin-1-yl-pyrido[3,4-d]pyrimidin-2-yl)-pyridin-2-yl]-(2,6-difluoro-pyridin-3-yl)-amine]
< 100	FC(F)(F)c1ccc(Nc2cc(-c3nc(N[C@@H]4CCNC4)c4ccncc4n3)ccn2)nc1 [Example 351, (R)-Pyrrolidin-3-yl-{2-[2-(5-trifluoromethyl-pyridin-2-ylamino)-pyridin-4-yl]-pyrido[3,4-d]pyrimidin-4-yl}-amine]
< 100	NC1CCN(c2nc(-c3ccnc(Nc4c(F)cccc4F)c3)nc3cncc(C4CC4)c23)CC1 [Example 690, {4-[4-(4-Amino-piperidin-1-yl)-5-cyclopropyl-pyrido[3,4-d]pyrimidin-2-yl]-pyridin-2-yl}-(2,6-difluoro-phenyl)-amine]
< 100	Cn1c(Nc2cc(-c3nc(N4CCNCC4)c4c(C5CC5)cncc4n3)ccn2)nc2ccccc21 [Example 2046, [4-(5-Cyclopropyl-4-piperazin-1-yl-pyrido[3,4-d]pyrimidin-2-yl)-pyridin-2-yl]-(1-methyl-1H-benzoimidazol-2-yl)-amine]
< 100	NC(=O)c1ccc(Nc2cc(-c3nc(N4CCNCC4)c4c(C5CC5)cncc4n3)ccn2)cc1 [Example 742, 4-[4-(5-Cyclopropyl-4-piperazin-1-yl-pyrido[3,4-d]pyrimidin-2-yl)-pyridin-2-ylamino]-benzamide]
< 100	Brc1cncc2nc(-c3ccncc3)nc(N3CCNCC3)c12 [Example 133, 1-[5-bromo-2-(pyridin-4-yl)pyrido[3,4-d]pyrimidin-4-yl]piperazine]
< 100	Fc1cnc(Nc2ccccc2)cc1-c1nc(N2CCNCC2)c2c(C3CC3)cncc2n1 [Example 654, [4-(5-Cyclopropyl-4-piperazin-1-yl-pyrido[3,4-d]pyrimidin-2-yl)-5-fluoro-pyridin-2-yl]-phenyl-amine]
< 100	FC(F)(F)c1cc2c(-c3nc(N4CCNCC4)c4c(C5CCCC5)cncc4n3)ccnc2[nH]1 [Example 2105, 5-Cyclopentyl-4-piperazin-1-yl-2-(2-trifluoromethyl-1H-pyrrolo[2,3-b]pyridin-4-yl)-pyrido[3,4-d]pyrimidine]
< 100	COc1cccc(CC(=O)Nc2cc(-c3nc(N[C@@H]4CCNC4)c4ccncc4n3)ccn2)c1 [Example 337, 2-(3-Methoxy-phenyl)-N-{4-[4-((R)-pyrrolidin-3-ylamino)-pyrido[3,4-d]pyrimidin-2-yl]-pyridin-2-yl}-acetamide]
< 100	c1cc(-c2nc(N3CCN[C@@H](C4CC4)C3)c3c(C4CC4)cncc3n2)c2cc[nH]c2n1 [Example 1220, 5-Cyclopropyl-4-((S)-3-cyclopropyl-piperazin-1-yl)-2-(1H-pyrrolo[2,3-b]pyridin-4-yl)-pyrido[3,4-d]pyrimidine]
< 100	CC1(C)CN(c2nc(-c3ccnc(Nc4ccc(F)cc4)c3)nc3cncc(C4CC4)c23)CCN1 [Example 719]
< 100	N[C@H](CNc1nc(-c2ccncc2)nc2cnc(Cl)cc12)Cc1ccccc1 [Example 12, N-[(2S)-2-amino-3-phenylpropyl]-6-chloro-2-(pyridin-4-yl)pyrido[3,4-d]-pyrimidin-4-amine]
